Tests used:
[1] = set-up: method as in PMID 29202406; settings: cited from earlier work
primary cortical neurons = test: Neuroprotection against OGD/R injury, MTT cell viability; format: cell-based; settings: Rattus norvegicus, Primary cortical neuron, compound 10 μM, control 100%, OGD/R group 40.4%, read-out: Cell viability (MTT) after OGD/R
Method: The parental compounds Clau F and CZ-7 have remarkable neuroprotective effects. To further confirm whether the derivatives retain activity, an OGD/R model was performed in primary cortical neurons, and 3-(4,5-dimethylthiazol-2-yl)-2,5-diphenyltetrazolium bromide (MTT) assays were used to test cell viability. […]. According to the experimental results above, compound 6bd was selected as the candidate compound for the subsequent investigations.
[…]. All cell suspensions were grown in neurobasal/B27 medium with 100-U/mL penicillin and 100-μg/mL streptomycin. The cells were plated in poly-L-lysine (PLL, 0.1 mg/mL)-coated multiwell plates or chamber slides and maintained at 37 °C in a humidified atmosphere of 5% CO2 and 95% air. Seven day cultures were used for treatment. The treatment methods were similar to those used for PC12, but the concentrations of H2O2 and sodium dithionite were 100 μM and 2 mM, respectively.
Cell viability was determined by MTT assay. Cells were incubated with 5 mg/mL MTT (10 μL) at 37 °C for 4 h. The formazan crystals were dissolved, and absorbance was determined at 570 nm using a Microplate Reader (Thermo, Germany). The cell viability was expressed as a percentage of the optical density (OD) value of the control cultures.
Figure 2 Neuroprotective activity screening of 6aa–ad, 6ba–bf, 6ca–cd, and CZ-7 at 10 μM in primary cortical neurons induced by oxygen–glucose deprivation/reoxygenation (OGD/R). Neurons were exposed to […] sodium dithionite and reoxygenation. A 3-(4,5-dimethylthiazol-2-yl)-2,5-diphenyltetrazolium bromide (MTT) assay was used to test the cell viability. The absorbance of normal cells was regarded as 100%. Error bars represent the standard deviation. ### p < 0.001 vs. control; ** p < 0.05, *** p < 0.01 vs. model (means ± standard deviation, n = 6).

[2] = molecular target: butyrylcholinesterase (BuChE, from equine serum) (Equus caballus, UniProt P81908); test: biochemical; settings: eqBuChE; mean ± spread
[3] = system: ICR (Institute of Cancer Research) mice; settings: oral 1 g/kg dose; cited from earlier work
AChE (from electric eel) = molecular target: T1, AChE (from electric eel) (Electrophorus electricus, UniProt O42275); test: biochemical; settings: eeAChE; for IC50: mean ± spread
T1 construct: purchased Sigma-Aldrich

in vitro = in vitro ADME; settings: PAMPA-BBB
Method: A blood–brain barrier (BBB) penetration assay in vitro is essential for anti-AD drug development. […] The compounds’ blood–brain barrier penetration was evaluated by using the parallel artificial membrane permeation assay (PAMPA) described by Di et al.. The two commercial drugs were purchased from Aladdin (China). Porcine brain lipid was obtained from Sigma (China). The donor microplate (polyvinylidene fluoride (PVDF) membrane, pore size 0.45 μm) and acceptor microplate were both from Millipore (China). The 96-well ultraviolet (UV) plate (COSTAR) was from Corning Incorporated (USA). The detailed procedure was described in [26, 27].

[4] = Singlet oxygen scavenging by ESR spectroscopy (TEMP, UVA light); format: physicochemical; settings: 10^−2 mol/L compound, 5 × 10^−2 mol/L TEMP in DMSO, UVA light 1 min
Method: Oxidative stress caused by reactive oxygen (for example, singlet oxygen and hydroxyl radical) is related to the death of neurons and the formation of intracellular Aβ oligomer. Drugs designed to prevent the formation or removal of free radicals in the brain are beneficial for AD. The main technique for detecting organic free radicals is electron spin resonance (ESR) spectroscopy. This technology can detect radical concentrations on the order of 10 nM or less under favorable conditions and has high sensitivity. Therefore, compound 6bd was tested for its ability to scavenge active oxygen by using ESR spectroscopy. For comparison, edaravone (Eda) was used as a reference.
ESR signals were recorded with a 10 mW incident microwave and […] field modulation of 1 G. The scan width was 150 G for 2, 2, 6, 6-tetramethylpiperidine (TEMP) experiments. All measurements were performed at room temperature (RT). Briefly, 5 × 10^−2 mol/L TEMP and 10^−2 mol/L 6bd or Eda were mixed in DMSO, and ESR signals were obtained after exposure to UVA light for 1 min.

Sequence of butyrylcholinesterase (BuChE, from equine serum) (P81908 whole entry): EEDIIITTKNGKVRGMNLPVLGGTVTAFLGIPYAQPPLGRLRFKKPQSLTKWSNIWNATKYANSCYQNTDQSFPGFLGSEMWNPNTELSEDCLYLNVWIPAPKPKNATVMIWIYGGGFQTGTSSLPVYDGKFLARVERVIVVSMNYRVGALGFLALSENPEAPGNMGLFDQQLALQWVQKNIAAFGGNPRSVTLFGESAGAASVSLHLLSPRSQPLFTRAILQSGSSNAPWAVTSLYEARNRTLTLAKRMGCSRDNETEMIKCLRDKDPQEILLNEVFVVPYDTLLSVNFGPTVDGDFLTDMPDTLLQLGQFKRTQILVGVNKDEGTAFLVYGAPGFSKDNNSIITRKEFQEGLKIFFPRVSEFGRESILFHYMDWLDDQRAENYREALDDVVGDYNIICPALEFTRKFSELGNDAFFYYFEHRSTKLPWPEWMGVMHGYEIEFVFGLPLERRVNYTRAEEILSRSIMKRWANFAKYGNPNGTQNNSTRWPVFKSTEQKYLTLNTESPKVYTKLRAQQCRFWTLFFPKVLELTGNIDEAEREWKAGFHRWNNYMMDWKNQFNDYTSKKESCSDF
T1 sequence (O42275 24-633): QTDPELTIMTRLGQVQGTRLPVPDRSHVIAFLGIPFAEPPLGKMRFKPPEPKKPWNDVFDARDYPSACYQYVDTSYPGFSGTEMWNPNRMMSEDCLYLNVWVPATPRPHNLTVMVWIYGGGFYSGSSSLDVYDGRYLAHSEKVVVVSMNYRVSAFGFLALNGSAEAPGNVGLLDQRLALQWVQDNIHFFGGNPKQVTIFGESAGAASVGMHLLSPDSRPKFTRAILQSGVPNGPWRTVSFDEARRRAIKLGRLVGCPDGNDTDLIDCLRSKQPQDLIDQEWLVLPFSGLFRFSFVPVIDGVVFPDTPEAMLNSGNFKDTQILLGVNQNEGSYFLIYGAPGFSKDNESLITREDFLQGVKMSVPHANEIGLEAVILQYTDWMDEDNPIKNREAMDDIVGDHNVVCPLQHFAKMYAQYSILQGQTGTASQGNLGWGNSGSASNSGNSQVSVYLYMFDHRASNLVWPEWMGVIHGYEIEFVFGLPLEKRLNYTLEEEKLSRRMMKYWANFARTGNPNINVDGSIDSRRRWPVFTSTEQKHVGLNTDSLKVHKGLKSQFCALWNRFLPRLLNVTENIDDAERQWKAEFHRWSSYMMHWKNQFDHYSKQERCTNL

| SMILES | Exposure in the brain relative to plasma [1] | viability at 10 µM (primary cortical neurons) | IC50 [2] | Acute toxicity finding [3] | inhibition at 100 µM (AChE (from electric eel); compound at 100 μM, read-out: AChE inhibition rate (%) in 100 μM) | IC50 (AChE (from electric eel)) | Brain penetration classification (in vitro) | Papp (in vitro; means ± SD of three independent experiments, read-out: Permeability Pe, Experiment) | Singlet oxygen scavenging compared with edaravone (Eda) [4] |
| --- | --- | --- | --- | --- | --- | --- | --- | --- | --- |
| Cc1cc2c([nH]c3ccc(C(C)(C)C)cc32)c2c1OC(C)(C)C=C2 [CZ-7, reference compound] | 4.3 fold | 113% | 59.5 ± 5.62 µM | no toxic side effects | 32.5 ± 6.52% | – | – | – | – |
| CC1(C)C=Cc2c(c(/C=C/C(=O)NCC3CCN(Cc4ccccc4F)CC3)cc3c2[nH]c2ccc(C(C)(C)C)cc23)O1 [Compound 6bb, (E)-3-(8-(tert-Butyl)-3,3-dimethyl-3,11-dihydropyrano[3,2-a]carbazol-5-yl)-N-((1-(2-fluorobenzyl)piperidin-4-yl)methyl)acrylamide] | – | 109% | 5.63 ± 0.31 µM | – | – | 4.08 ± 0.12 µM | – | – | – |
| CC1(C)C=Cc2c(c(/C=C/C(=O)NCC3CCN(Cc4ccccc4Cl)CC3)cc3c2[nH]c2ccc(C(C)(C)C)cc23)O1 [Compound 6bd, (E)-3-(8-(tert-Butyl)-3,3-dimethyl-3,11-dihydropyrano[3,2-a]carbazol-5-yl)-N-((1-(2-chlorobenzyl)piperidin-4-yl)methyl)acrylamide] | – | 126% | 5.46 ± 0.61 µM | – | – | 4.34 ± 0.46 µM | good brain penetration | 4.38 ± 0.05 ×10⁻⁶ cm/s | stronger effect |
| CC1(C)C=Cc2c(c(/C=C/C(=O)NCC3CCN(Cc4cccc(Cl)c4)CC3)cc3c2[nH]c2ccc(C(C)(C)C)cc23)O1 [Compound 6be, (E)-3-(8-(tert-Butyl)-3,3-dimethyl-3,11-dihydropyrano[3,2-a]carbazol-5-yl)-N-((1-(3-chlorobenzyl)piperidin-4-yl)methyl)acrylamide] | – | 105% | 6.36 ± 1.21 µM | – | – | 1.69 µM | – | – | – |
| CC1(C)C=Cc2c(c(/C=C/C(=O)NCC3CCN(Cc4ccc(Cl)cc4)CC3)cc3c2[nH]c2ccc(C(C)(C)C)cc23)O1 [Compound 6bf, (E)-3-(8-(tert-Butyl)-3,3-dimethyl-3,11-dihydropyrano[3,2-a]carbazol-5-yl)-N-((1-(4-chlorobenzyl)piperidin-4-yl)methyl)acrylamide] | – | 107% | 12.1 ± 0.76 µM | – | – | 1.63 ± 0.3 µM | – | – | – |

From article PMC7957565 (Molecules, 2021)
